The values below come from paper PMC7918733, “Biological Profiling of Semisynthetic C19-Functionalized Ferruginol and Sugiol Analogues” (Antibiotics, 2021).

In general, EC50 refers to the midpoint of the concentration-response curve. In general, GI50 refers to the concentration at which growth is held to half of that of the control. In general, IC50 refers to the concentration that inhibits the measured activity by half.

In data set [1] the test system is HepG2. Conditions: cytotoxicity; cited from earlier work.
Data set [2] relates to P. falciparum 3D7 strain. Conditions: chloroquine-sensitive strain; cited from earlier work.
The next data set concerns Vero. Conditions: cited from earlier work.
For data set [3], the system named is P. falciparum K1 strain. The settings on record: chloroquine-resistant strain; cited from earlier work.
For data set [4], the system named is A549 (Lung). The settings on record: cited from earlier work.
Data set [5] relates to L. donovani promastigotes. The settings on record: cited from earlier work.
Data set [6] deals with HEK293. The settings on record: cytotoxicity; cited from earlier work.
In data set [7] the test system is RAJI. Conditions: cytotoxicity; cited from earlier work.
Data set [8] relates to BJ. Conditions: cytotoxicity; cited from earlier work.
Data set [9] has as its system WiDr (Colon). The settings on record: C18-congeners; cited from earlier work.
Data set [10] concerns L. amazonensis amastigotes. Further details: method as in PMID 30840453. The settings on record: C18-congener, read-out: L. amazonensis IC50 ± SD; cited from earlier work.
Data set [11] has as its system L. amazonensis promastigotes. Set-up: method as in PMID 30840453. Conditions: C18-congeners, read-out: L. amazonensis IC50 ± SD; cited from earlier work.
Another data set relates to Macrophages J774. The settings on record: read-out: Macrophages J774 CC50; C18-congeners; cited from earlier work.
For data set [12], the system named is T-47D (Breast). Conditions: C18-congeners; cited from earlier work.
Data set [13] relates to L. infantum promastigotes. Set-up: method as in PMID 30840453. The settings on record: C18-congeners, read-out: L. infantum IC50 ± SD; cited from earlier work.
Data set [14] addresses T1, GABAA receptor subtype (α1β2γ2S) (Homo sapiens, UniProt P14867+P18507+P47870). Further details: expressed in transfected cells; host or cells: Xenopus laevis oocytes. The settings on record: C18-congeners, cited from earlier work.
The test system of data set [15] is HBL-100 (Breast). The settings on record: C18-congeners; cited from earlier work.
The test system of data set [16] is SW1573 (Lung). The settings on record: C18-congeners; cited from earlier work.
A further data set has as its system L. infantum amastigotes. Set-up: method as in PMID 30840453. Conditions: C18-congener, read-out: L. infantum IC50 ± SD; cited from earlier work.
The test system of data set [17] is L. guyanensis promastigotes. Set-up: method as in PMID 30840453. The settings on record: C18-congeners, read-out: L. guyanensis IC50 ± SD; cited from earlier work.
Data set [18] relates to HeLa (Cervix). The settings on record: C18-congeners; cited from earlier work.
The subject of data set [19] is WiDr (Colon). Description: Antiproliferative SRB assay. Format: cell-based, human. Conditions: Homo sapiens, WiDr, mean ± SD of at least two experiments. On the procedure: (§1) Cells, cultures and the activity test of abietane analogs followed reported methods. The SRB assay was performed as previously described, and the antiproliferative activity was given as GI50 values, which were calculated according to NCI formulas.
In general terms: Sulforhodamine B stains cellular protein and so reports cell mass.

In data set [20] the test system is A549 (Lung). Description: Antiproliferative SRB assay. Format: cell-based, human. Conditions: Homo sapiens, A549, mean ± SD of at least two experiments. On the procedure:
as §1

Data set [21] has as its system SW1573 (Lung). Description: Antiproliferative SRB assay. Format: cell-based, human. The settings on record: Homo sapiens, SW1573, mean ± SD of at least two experiments. Here is the method: as §1
A further data set in a line: in vitro. Conditions: mouse, Macrophages J774 CC50.
A further data set deals with A549 cell line. Set-up: method as in doi:10.1016/j.phytol.2013.04.003. Conditions: MTT method; cited from earlier work.
The target of data set [22] is T1, GABAA receptor subtype (α1β2γ2S). Description: Two-microelectrode voltage-clamp in Xenopus laevis oocytes.
Method: All molecules were tested at concentrations of 10, 100 μM and compared with dehydroabietic acid (DHA) (3) as a reference [16].
Data set [23] deals with HEK293. The data set is described as follows: Cytotoxicity on mammalian cell lines. Format: cell-based. Conditions: Homo sapiens, HEK293; read-out: HEK293 EC50. On the procedure: (§2) Assays were performed by using previously described DNA stain-based assay and methods, including cytotoxicity assays.
In data set [24] the test system is RAJI. Description: Cytotoxicity on mammalian cell lines. The settings on record: Homo sapiens, read-out: RAJI EC50. Format: cell-based. On the procedure:
as §2

The test system of data set [25] is HepG2. Description: Cytotoxicity on mammalian cell lines. Format: cell-based. Conditions: Homo sapiens, HepG2; read-out: HepG2 EC50. Here is the method:
as §2

The test system of data set [26] is BJ. The data set is described as follows: Cytotoxicity on mammalian cell lines. Conditions: Homo sapiens, read-out: BJ EC50. Format: cell-based. On the procedure:
as §2

Data set [27] has as its system human solid tumor cell lines HBL-100, A549, HeLa, T-47D, SW1573, WiDr. The data set is described as follows: Antiproliferative SRB assay, panel of six cell lines. Format: cell-based. Conditions: over the six solid tumor cell lines, read-out: GI50 (range over the cell lines). On the procedure: as §1
For data set [28], the system named is P. falciparum 3D7 strain. Description: Antiplasmodial DNA stain-based growth assay. Format: cell-based. Conditions: Plasmodium falciparum, 3D7; chloroquine-sensitive strain; 72 h incubation; read-out: P. falciparum 3D7 EC50. On the procedure:
as §2

For data set [29], the system named is P. falciparum K1 strain. Description: Antiplasmodial DNA stain-based growth assay. Format: cell-based. The settings on record: Plasmodium falciparum, K1; chloroquine-resistant strain; 72 h incubation; read-out: P. falciparum K1 EC50. Here is the method:
as §2

Data set [30] concerns T-47D (Breast). The data set is described as follows: Antiproliferative SRB assay. Format: cell-based. The settings on record: Homo sapiens, T47D, mean ± SD of at least two experiments. Here is the method:
as §1

Data set [31] concerns HeLa (Cervix). The data set is described as follows: Antiproliferative SRB assay. The settings on record: Homo sapiens, mean ± SD of at least two experiments. Format: cell-based. Here is the method: as §1
In data set [32] the test system is HBL-100 (Breast). The data set is described as follows: Antiproliferative SRB assay. Format: cell-based. The settings on record: Homo sapiens, mean ± SD of at least two experiments. On the procedure: as §1

Each structure is given as a SMILES string. Like-named read-outs stand apart in the source and are kept apart here. Some results are limits rather than exact numbers.

T1 sequence (P14867 28-456): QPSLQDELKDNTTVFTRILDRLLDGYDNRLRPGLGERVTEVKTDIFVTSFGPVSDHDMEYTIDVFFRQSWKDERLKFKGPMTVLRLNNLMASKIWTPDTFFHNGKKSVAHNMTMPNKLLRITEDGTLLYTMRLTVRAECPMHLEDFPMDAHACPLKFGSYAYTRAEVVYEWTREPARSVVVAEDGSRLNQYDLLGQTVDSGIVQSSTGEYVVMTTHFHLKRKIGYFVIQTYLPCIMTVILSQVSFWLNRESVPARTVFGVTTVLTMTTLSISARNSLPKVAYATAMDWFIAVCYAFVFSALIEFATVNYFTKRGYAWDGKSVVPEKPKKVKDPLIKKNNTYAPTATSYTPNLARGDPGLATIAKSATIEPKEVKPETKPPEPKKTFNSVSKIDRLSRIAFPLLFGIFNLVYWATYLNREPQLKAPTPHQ
T1 sequence (P47870 26-512): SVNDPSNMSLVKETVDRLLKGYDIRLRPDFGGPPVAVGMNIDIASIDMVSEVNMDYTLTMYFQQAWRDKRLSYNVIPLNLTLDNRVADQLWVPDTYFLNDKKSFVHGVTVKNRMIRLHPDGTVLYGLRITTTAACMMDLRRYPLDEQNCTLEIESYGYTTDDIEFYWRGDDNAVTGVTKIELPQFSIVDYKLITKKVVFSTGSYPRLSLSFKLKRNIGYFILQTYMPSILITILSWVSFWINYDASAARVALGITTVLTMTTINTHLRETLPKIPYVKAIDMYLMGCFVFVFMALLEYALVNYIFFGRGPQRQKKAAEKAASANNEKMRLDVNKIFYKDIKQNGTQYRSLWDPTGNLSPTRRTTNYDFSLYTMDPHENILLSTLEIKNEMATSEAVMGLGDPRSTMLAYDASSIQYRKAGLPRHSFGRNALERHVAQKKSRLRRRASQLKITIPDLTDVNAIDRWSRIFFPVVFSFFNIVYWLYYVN
T1 sequence (P18507 40-467 isoform P18507-1 limits assumed): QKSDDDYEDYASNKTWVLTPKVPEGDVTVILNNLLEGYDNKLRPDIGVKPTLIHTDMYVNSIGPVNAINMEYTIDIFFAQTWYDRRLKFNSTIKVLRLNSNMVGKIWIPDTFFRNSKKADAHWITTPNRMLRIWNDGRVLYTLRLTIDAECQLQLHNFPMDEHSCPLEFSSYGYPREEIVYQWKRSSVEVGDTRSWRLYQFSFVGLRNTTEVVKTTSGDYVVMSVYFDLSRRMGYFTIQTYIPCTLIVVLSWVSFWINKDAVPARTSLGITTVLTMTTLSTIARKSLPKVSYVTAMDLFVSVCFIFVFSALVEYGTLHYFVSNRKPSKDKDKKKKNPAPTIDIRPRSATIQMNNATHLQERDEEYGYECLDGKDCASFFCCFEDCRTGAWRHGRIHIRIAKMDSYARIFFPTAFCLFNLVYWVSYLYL
Method for in vitro: The compounds were additionally studied in a panel of mammalian cell lines to determine cytotoxicity.
The parasites, culture procedure and the activity of functionalized abietane analogs on Leishmania promastigotes were performed according to the method previously reported by us [28], while the intracellular amastigote assay was performed on L. amazonensis and L. infantum according to the fluorometric test [29]. The J774 cell culture and the cytotoxicity assay was carried out according to our previously described method [30].

Regarding `CC(C)c1cc2c(cc1O)[C@@]1(C)CCCC(C)(C)[C@@H]1CC2` [Compound 1, ferruginol], the concentration for a half-maximal effect (EC50) in the data set on HepG2 [1] was greater than 25 µM; in the data set with P. falciparum 3D7 strain [2], 2.47 µM; in the data set on P. falciparum K1 strain [3], 1.33 µM; in the data set with HEK293 [6], greater than 25 µM; in the data set on RAJI [7], 11.5 µM; with BJ [8], 19.6 µM. The CC50 with Vero was greater than 16.6 µM. Besides, the concentration for 50% growth inhibition (GI50) in the data set with A549 (Lung) [4] was 30.7 ± 5.2 µM. Further, the IC50 in data set [5] (read-out: L. donovani IC50) was 12.2 µM.
Regarding `COC(=O)[C@]1(C)CCC[C@]2(C)c3cc(C(C)=O)c(C(C)C)cc3CC[C@@H]12` [Compound 9b], the GI50 with WiDr (Colon) [9] is 17 ± 2.4 µM; in the data set with T-47D (Breast) [12], 10 ± 1.5 µM; in the data set on HBL-100 (Breast) [15], 15 ± 1.2 µM; in the data set with SW1573 (Lung) [16], 11 ± 4.6 µM; in the data set with A549 (Lung) [4] (C18-congeners), 18 ± 2.3 µM; in the data set on HeLa (Cervix) [18], 11 ± 1 µM. The IC50 in [10] is 31.4 ± 6.2 µM; in [11], 11.6 ± 0.6 µM; in data set [13] it was 2.5 ± 0.6 µM; in [5] (C18-congeners, read-out: L. donovani IC50 ± SD), 14.8 ± 0.9 µM; with L. infantum amastigotes it was 37.2 ± 2.4 µM; in data set [17], 14.2 ± 0.4 µM. The CC50 with Macrophages J774 is 130 ± 8.9 µM. For the same compound, the “IGABA Potentiation of 10 µM (%)” value in data set [14] (10 µM) is 2.7 ± 0.9%. The “IGABA Potentiation of 100 µM (%)” value in data set [14] (100 µM) is −2.9 ± 5.1%.
Consider `CC(C)c1cc2c(cc1O)[C@@]1(C)CCC[C@](C)(CO)[C@@H]1CC2` [Compound 14, 19-hydroxyferruginol], for which the GI50 in the data set with WiDr (Colon) [19] was 13 ± 3.7 µM; with A549 (Lung) [20], 1.8 ± 0.4 µM; in the data set on SW1573 (Lung) [21], 13 ± 1.3 µM; in [27], 1.8 to 13 µM; in the data set with T-47D (Breast) [30], 12 ± 1.8 µM; in the data set on HeLa (Cervix) [31] it was 3.1 ± 0.9 µM. For the same compound, in the data set with HBL-100 (Breast) [32], the GI50 worked out at 13 ± 1.6 µM. Besides, in “in vitro”, the CC50 was 51.9 ± 5.9 µM. Also, the IC50 in the data set with A549 cell line is 14 µM. The activation at 10 µM in [22] (read-out: IGABA Potentiation of 10 µM (%)) was 64 ± 13%. Besides, the activation at 100 µM in data set [22] (read-out: IGABA Potentiation of 100 µM (%)) came out at 507%. The concentration giving a half-maximal response (EC50) with HEK293 [23] is greater than 25 µM; in the data set on RAJI [24] it was greater than 25 µM; with HepG2 [25], greater than 25 µM; in the data set with BJ [26] it was greater than 25 µM; in the data set on P. falciparum 3D7 strain [28] it was greater than 15 µM; with P. falciparum K1 strain [29] it was 11.6 µM.
